Measured values as given in patent publication US20140004108A1, “Methods for Modulation of Autophagy Through the Modulation of Autophagy-Enhancing Gene Products” (HARVARD MEDICAL SCHOOL, priority 2009, published 2014).
Entries after “also recorded” stand apart in the source; their conditions may differ.

Tests used:
Assay type in all cases: cell-based, human
LC3 = assay: Western blot of autophagy markers (LC3 II, p62, Atg12-Atg5); settings: for autophagy by LC3 western blot (LC3 II/tubulin ratio): 100 ng/mL IGF1, 50 ng/mL FGF2, LIF or CLCF1, 10 μg/mL E64d, with or without 50 nM rapamycin pre-treatment
Procedure: (§1) For the cytokine assays, cells were seeded at 0.5×10^5 in full medium in either 24-well (western) or 96-well (LC3-GFP quantification) plates. After 24 hours, cells were washed in PBS and serum-free OPTIMEM™ medium (Invitrogen) was added along with the indicated growth factors and/or cytokines for an additional 24 hours. Growth factors and cytokines used include human TNFα (Cell Sciences), human LIF (GeneScript Corporation), human FGF2 (ProSpec), human IGF1 (ProSpec), human SDF1 (Prospec) and human CLCF1 (R&D Systems). To induce starvation, cells were cultured for 24 hours in full media, washed in PBS and cultured for additional 4 hours in HBSS media (Invitrogen).
(§2) For western blot analysis, lysosomal protease inhibitor E64d (Sigma) was added at a concentration of 10 μg/mL for the last 8-12 hours before cell lysis.
(§3) For western blots, cells were lysed in Lammeli sample buffer, resolved on a 10-12% SDS-PAGE gel and transferred to PVDF membrane. The following antibodies were used: LC3 (Novus), p62 (Pharmigen), phospho-S6K (Thr389), phospho-Akt (Ser473), phospho-Stat3 (Tyr705), RelA, Sod1, phospho-PTEN (Ser380/Thr382/383) (all Cell Signaling), Bcl-2 (Santa Cruz), all at 1:1000, phospho-S6 (Ser235/236) (Cell Signaling) and phospho-ERK 1/2 (Sigma) at 1:2000, tubulin (Sigma) at 1:5000. Where indicated, blots were quantified using NIH ImageJ64 software.

H4 cells = assay: Western blot of signalling phosphorylation (phospho-ERK1/2, RSK, Stat3, Akt, Foxo3a, S6K); settings: for activating phosphorylation of Stat3: H4, 50 ng/mL LIF or CLCF1
Procedure: as §1, §3

[1] = system: H4 cells stably expressing LC3-GFP; assay: LC3-GFP translocation to autophagosomes, image-based autophagy assay; settings: for autophagy as measured by LC3-GFP translocation: H4 LC3-GFP cells grown in serum-free medium, treated with cytokine
Procedure: (§4) H4 human neuroblastoma cells were cultured under standard tissue culture conditions in DMEM media supplemented with 10% normal calf serum, penicillin/streptomycin, sodium pyruvate (Invitrogen) and, where appropriate, 0.4-1.2 mg/mL G418. LC3-GFP and FYVE-dsRed H4 cells were generated as described in Zhang et al., PNAS, 102, 15545-15550 ([…]). To create a stable line expressing Lamp1, H4 cells were transfected with Lamp1-RFP plasmid using TRANSIT_LT1® transfection reagent (Mirus), followed by selection with 0.4 mg/mL G418. Bcl-2 expressing cell lines were created by infecting LC3-GFP and FYVE-dsRed H4 cells with pBabe-Bcl-2 retrovirus, followed by selection with 1 μg/mL puromycin.
as §1, §2
For the primary screens, an arrayed library of 21,121 siRNA pools covering the majority of the human genome were used (Dharmacon siARRAY™ siRNA library (Human Genome, G-005000-05), Thermo Fisher Scientific, Lafayette, Colo.). Each pool contained of 4 unique oligonucleotides targeting different sequences from the same gene. Each assay plate also included the following controls: non-targeting siRNA, mTOR siRNA, ATG5 siRNA and PLK1 siRNA (a transfection efficiency control). siRNAs were transiently transfected in triplicate into H4 cells stably expressing a LC3-GFP reporter at a final concentration of 40 nM using reverse transfection with the […]® reagent (Qiagen). […]® reagent was diluted 1:20 in DMEM and 8 μl of the mixture was added to wells of 384 well plates. The plates were centrifuged at 1,000 rpm, after which 2 μl of 1 μM arrayed siRNA pools were added to each well. After 30 minutes of incubation, 500 cells in 40 μl of media were added to the wells. Cells were incubated for 72 hours under standard culture conditions, counterstained with 0.5 μM Hoechst 33342 (Invitrogen) for 1 hour and fixed by addition of 30 μl of 8% paraformaldehyde. After 30 minutes, cells were washed 3 times with PBS prior to analysis.
For secondary screens, a siRNA library was used in which the 4 siRNAs of each siRNA pool were separated into individual wells. The cells were transfected and treated as in the primary screen, except that siRNAs were used at a final concentration of 30 nM (1.5 μL/well of 1 uM stock) and […]® reagent was diluted 1:30 in OPTIMEM™ (Invitrogen). The secondary screen transfections were done in 2 rounds: in the first one a 1:1 mixture of H4 cells stably expressing LC3-GFP with FYVE-dsRed was transfected in triplicate; in the second round a 1:1 mixture of H4 cells expressing LC3-GFP with Lamp1-RFP was transfected in duplicate. All tertiary characterization screens were done in duplicate using a mixture of LC3-GFP and FYVE-dsRed cells. Each assay plate included 10-12 wells of non-targeting siRNA as well as mTOR, ATG5, PLK1 and, depending on screen, Vps34 or SOD1 siRNA controls.
(§5) For high-throughput screens, cells were imaged on an automated CellWoRx microscope (Applied Precision) at 10× magnification using 2 wavelengths (350 nm to detect Hoechst, 488 nm to detect LC3-GFP) for the primary screens and 3 wavelengths (350 nm, 488 nm and 550 nm to detect Lamp1-RFP or FYVE-dsRed) for the secondary screens.

GRP78 and GRP94 = assay: In-cell-western of KDEL (GRP78/GRP94) expression, ER stress; settings: H4 cells
Procedure: For quantitative analysis of mTORC1 signaling and induction of endoplasmic reticulum stress, in-cell-western analysis of rpS6 phosphorylation and KDEL (GRP78/GRP94) expression (‘KDEL’ disclosed as SEQ ID NO: 2), respectively, were performed. H4 cells were cultured in 384-well plates and fixed and counterstained as described for the LC3-GFP assay. Following imaging, the cells were permeabilized in PBS containing 0.2% Tx-100 and stained with ALEXA FLOUR®—680NHS-ester, a non-specific lysine reactive probe used to measure relative cell number, at 20 ng/mL for 15 minutes. Subsequently, the cells were washed with PBS containing 0.2% Tx-100 and incubated for 30 minutes in blocking buffer (LICOR® Blocking Buffer diluted 1:1 with PBS+0.2% Tx-100). Cells were then incubated overnight with a rabbit-anti-rpS6 phospho-235/236 (Cell Signaling Technologies), or mouse-anti-KDEL (Stressgen) antibody (‘KDEL’ disclosed as SEQ ID NO: 2) diluted 1:1000 in blocking buffer. […] The intensities of both, the rpS6 phospho-235/236 or KDEL staining (‘KDEL’ disclosed as SEQ ID NO: 2), and of NHS-ester staining were integrated, and the normalized phospho-S6 or KDEL score (‘KDEL’ disclosed as SEQ ID NO: 2) were calculated by dividing phospho-rpS6 or KDEL intensity (‘KDEL’ disclosed as SEQ ID NO: 2) by NHS-ester intensity. […]

type III PI3 kinase = assay: FYVE-dsRed vesicle recruitment (PtdIns3P levels); settings: FYVE-dsRed cells, 3MA 10 mM 8 hours or NAC
Procedure: as §4, §5

## O=c1[nH]c2ccccc2n1C1CCN(Cc2ccc(-c3nc4cc5[nH]cnc5cc4nc3-c3ccccc3)cc2)CC1 [Akt inhibitor VIII, reference compound]
LC3; 100 ng/mL IGF1, LC3 western
  inhibition of autophagy by IGF1, effect of Akt inhibitor: prevented inhibition of autophagy by IGF1
H4 cells; IGF1-treated cells with Akt inhibitor VIII
  phosphorylation of Foxo3a and S6 kinase: attenuated phosphorylation of both Foxo3a and the mTORC1 target S6 kinase

## tunicamycin [reference compound]
[1]; H4 cells
  autophagy after ER stress inducer: increase in autophagy
GRP78 and GRP94
  levels of GRP78 and GRP94 (ER stress markers): dose-dependent up-regulation of GRP78 and GRP94

## LIF: human LIF (GeneScript Corporation); leukemia inhibitory factor
[1]
  autophagy as measured by LC3-GFP translocation: significant down-regulation of autophagy
LC3; H4, serum-free
  autophagy by LC3 western blot (LC3 II/tubulin ratio): able to suppress autophagy in the absence and presence of rapamycin
H4 cells
  activating phosphorylation of Stat3: increased activating phosphorylation of Stat3

## IGF1: human IGF1 (ProSpec); insulin-like growth factor 1
[1]
  autophagy as measured by LC3-GFP translocation: significant down-regulation of autophagy
LC3; H4, serum-free
  autophagy by LC3 western blot (LC3 II/tubulin ratio): able to suppress autophagy in the absence and presence of rapamycin
H4 cells; in both the absence and presence of rapamycin, 100 ng/mL IGF1
  phosphorylation of Akt and Foxo3a: increased

## SDF1: human SDF1 (Prospec); chemokine SDF1 (CXCL12)
[1]
  autophagy as measured by LC3-GFP translocation: significant down-regulation of autophagy

## FGF2: human FGF2 (ProSpec); fibroblast growth factor 2 (basic)
[1]
  autophagy as measured by LC3-GFP translocation: significant down-regulation of autophagy
LC3; H4, serum-free
  autophagy by LC3 western blot (LC3 II/tubulin ratio): able to suppress autophagy in the absence and presence of rapamycin
H4 cells; H4, serum-free, 50 ng/mL FGF2
  phospho-ERK1/2 and phospho-RSK levels: increased level of phospho-ERK1/2 and phospho-RSK

## TNFα
[1]; H4 LC3-GFP cells in defined medium, higher doses of TNFα
  autophagy (LC3-GFP), higher doses: up-regulation of autophagy
[1]; H4 LC3-GFP cells in defined medium, low doses of TNFα
  autophagy (LC3-GFP), low doses: down-regulation of autophagy
LC3; H4 cells, low levels of TNFα (5 ng/ml, FIG. 31B)
  p62 level by western blot: significant accumulation of p62

## N#CC(=C(/N)Sc1ccccc1N)/C(C#N)=C(/N)Sc1ccccc1N [UO126, reference compound]
LC3; H4, serum-free, 50 ng/mL FGF2, 10 μg/mL E64d, pre-treatment with UO126
  inhibition of autophagy by FGF2, effect of MEK inhibitor: attenuated inhibition of autophagy; also recorded: prevented

## CC(=O)N[C@@H](CS)C(=O)O [NAC, N-acetyl-L-cysteine, reference compound]
[1]; H4 LC3-GFP, with antioxidant NAC 2.5 mM
  induction of autophagy caused by knock-down of Sod1: significantly attenuated induction of autophagy
Type III PI3 kinase
  Aβ-induced accumulation of PtdIns3P in presence of inhibitor or antioxidant: suppressed

B1: CLCF1: human CLCF1 (R&D Systems); cardiotrophin-like cytokine factor 1 (protein, UniProt Q9UBD9 28-225, looked up)
Cardiotrophin-like cytokine …: LNRTGDPGPGPSIQKTYDLTRYLEHQLRSLAGTYLNYLGPPFNEPDFNPPRLGAETLPRATVDLEVWRSLNDKLRLTQNYEAYSHLLCYLRGLNRQAATAELRRSLAHFCTSLQGLLGSIAGVMAALGYPLPQPLPGTEPTWTPGPAHSDFLQKMDDFWLLKELQTWLWRSAKDFNRLKKKMQPPAAAVTLHLGAHGF
[1]
  autophagy as measured by LC3-GFP translocation: significant down-regulation of autophagy
LC3; H4, serum-free
  autophagy by LC3 western blot (LC3 II/tubulin ratio): able to suppress autophagy in the absence and presence of rapamycin
H4 cells
  activating phosphorylation of Stat3: increased activating phosphorylation of Stat3
